These results are taken from patent US12428416B2 (California Institute of Technology, priority 2018, dated 2025).

Where only a bound is given, the exact number is not on record here.

As a reminder, the Kd is the concentration at which binding is half-saturated. The IC50 is the concentration that gives 50% inhibition. What is called half-life is how long it takes for the measured level to halve.

One data set has as its target ERK1 (Homo sapiens, UniProt P27361). Briefly: ERK1 and 2 Enzymatic Inhibition Assay (ERK1). The data set is classed as biochemical. As to conditions: 10 assay concentrations 2×10^−6 M to 6×10^−11 M, 1% DMSO. The gist of the method: (§1)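 Ki determination: compounds serially diluted semi-logarithmically in DMSO and tested at 10 final concentrations from 2×10^−6 M to 6×10^−11 M with 1% final DMSO.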

The target of the next data set is ERK2 (Homo sapiens, UniProt P28482). As to the kind of experiment: ERK1 and 2 Enzymatic Inhibition Assay (ERK2). The format is biochemical. As to conditions: 10 assay concentrations 2×10^−6 M to 6×10^−11 M, 1% DMSO. The gist of the method:
as §1

The test system of data set [1] is drug-sensitive cell lines of Table 4. Briefly: Cell line growth retardation assay, average over sensitive cohort. The data set is classed as cell-based, Human. As to conditions: Homo sapiens, 144 h; geometric mean of IC50s over sensitive cohort (Table 4); 6 days growth; read-out: AvgSens IC50. The essentials: (§2)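 Cancer cell lines treated 6 days with compound at 10 μM down to 0.0032 μM (5-fold steps) vs vehicle; cells counted by imaging on day 0 and day 6. Growth inhibition as ratio of population doublings with vs without compound; per-line IC50 from curve fit, cohort value as geometric mean.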

For data set [2], the system named is drug-resistant cell lines of Table 4. Briefly: Cell line growth retardation assay, average over resistant cohort. The format is cell-based, Human. As to conditions: Homo sapiens, 144 h; geometric mean of IC50s over resistant cohort (Table 4); 6 days growth; read-out: AvgRes IC50. The gist of the method: as §2
The nature of data set [3]: Compound metabolic stability in hepatocytes. The format is in vitro ADME. As to conditions: hepatocytes from mice and rats (species not given); class symbols without key. How it is done:
The metabolic stability of compounds was determined in hepatocytes from mice and rats. Compounds were diluted to 5 μM in Williams' Medium E from 10 mM stock solutions. 10 μL of each compound was aliquoted into a well of a 96-well plate and reactions were started by aliquoting 40 μL of a 625,000 cells/mL suspension into each well. The plate was incubated at 37° C. with 5% CO2. At each corresponding time point, the reaction was stopped by quenching with ACN containing internal standards (IS) at a 1:3. Plates were shaken at 500 rpm for 10 min, and then centrifuged at 3,220×g for 20 minutes. Supernatants were transferred to another 96-well plate containing a dilution solution. Supernatants were analyzed by LC/MS/MS.
Compound half-life was estimated using the following equation: % Remaining Compound=Peak Area Ratios of Tested Compound vs. Internal Standard at End Point/Peak Area Ratios of Tested Compound vs. Internal Standard at Start Point Mouse Xenograft Studies

Data set [4] in a line: Mouse Maximum Tolerated Dose Studies. The format is in vivo. The conditions noted are these: mice, oral gavage (PO). How it is done: Mouse Maximum Tolerated Dose Studies
For maximum tolerated dose (MTD) determination studies, non-tumor bearing CD-1 athymic nude mice were randomized into […] treatment groups (5 mice per group) and treated with either 400, 300, 200, 100, 50 or 25 mg/kg of compound by daily PO, or 200, 100, 50, 25, or 12.5 mg/kg of compound twice daily PO. Mice were weighed daily and % body weight loss was calculated relative to individual mouse body weights at the start of treatment. […] MTD was determined as the highest dose at which a mean body weight loss of <10% over 14 days of dosing was observed.

For data set [5], the system named is phosphorylated RSK (pRSK) in M275 cells. Briefly: Western Blot for Total and pRSK. The data set is classed as cell-based, human. As to conditions: treatment for 4.5 hours and 24 hours, 200 nM. How it is done: Western Blot for Total and pRSK
For Western blot assays (see FIG. 14), protein lysates were obtained from either the M275 or M202 human melanoma cancer cell lines. For assay, cells were plated on 10 cm dishes and treated 24 hours later with either 200 nM of test compound in DMSO or DMSO control for 4.5 or 24 hours. After the treatment period, cells were washed twice in ice-cold PBS and lysed for 15 minutes at 4° C. using a mild lysis buffer (Cell Signaling Technology) containing a mixture of protease inhibitors (Calbiochem) and 1 mmol/L phenlymethylsulfonlyfluoride. Insoluble material was removed by centrifugation at 10,000×g for 10 minutes. Protein concentration of each sample was quantified by BCA (Pierce), resolved by SDS-PAGE, and transferred to nitrocellulose membranes (iBlot, Invitrogen Life Technology). Total (32D7, Cell Signaling Technologies) and phosphorylated ([…]; D1E9, Cell Signaling Technology) RSK protein were detected using the indicated antibody clones. All blots were repeated in duplicate and relative levels of individual proteins compared to a loading control (α-tubulin) (11H10; Cell Signaling Technology) were quantitated using the ECL Plus chemifluorescent reagent (Amersham Biosciences) and the ChemiDoc™ Touch Imaging System (BioRad).
Background: In western blotting, separated proteins are transferred to a membrane and probed.

Sequence of ERK1 (P27361 whole entry): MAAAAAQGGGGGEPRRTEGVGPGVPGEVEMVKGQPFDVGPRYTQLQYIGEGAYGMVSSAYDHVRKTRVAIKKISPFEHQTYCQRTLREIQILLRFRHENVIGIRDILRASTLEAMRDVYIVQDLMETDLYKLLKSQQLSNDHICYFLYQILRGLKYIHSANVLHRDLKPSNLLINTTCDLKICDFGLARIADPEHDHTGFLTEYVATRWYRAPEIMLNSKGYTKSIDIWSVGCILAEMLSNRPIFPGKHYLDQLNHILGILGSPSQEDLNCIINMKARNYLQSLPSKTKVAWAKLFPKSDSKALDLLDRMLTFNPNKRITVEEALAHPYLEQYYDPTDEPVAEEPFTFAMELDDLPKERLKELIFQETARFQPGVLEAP
Sequence of ERK2 (P28482 whole entry): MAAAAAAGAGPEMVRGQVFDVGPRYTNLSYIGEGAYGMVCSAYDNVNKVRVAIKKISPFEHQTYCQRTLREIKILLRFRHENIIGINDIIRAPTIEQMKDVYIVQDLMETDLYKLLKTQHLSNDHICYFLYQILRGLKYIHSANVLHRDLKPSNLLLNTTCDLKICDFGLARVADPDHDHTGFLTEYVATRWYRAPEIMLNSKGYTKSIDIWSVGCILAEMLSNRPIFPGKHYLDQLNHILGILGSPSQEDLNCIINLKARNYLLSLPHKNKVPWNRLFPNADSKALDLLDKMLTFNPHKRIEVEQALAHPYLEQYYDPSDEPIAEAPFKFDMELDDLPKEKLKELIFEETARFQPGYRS

Turning to `CC(NC(=O)c1ncc(-c2c[nH]c3ncc(N4CCOCC4)cc23)cn1)c1ccccc1` (stereo in doubt) [Compound 6, (R)-5-(5-morpholino-1H-pyrrolo[2,3-b]pyridin-3-yl)-N-(1-phenylethyl)pyrimidine-2-carboxamide], the dissociation constant (Kd) at ERK1 and at ERK2 was ≤ 10 nM each time. Besides, the IC50 was ≤ 250 nM in data set [1] and > 500 nM in data set [2]. Also, the half-life at 1 µM in data set [3] is > 25 min. Further, in data set [4] (daily (QD)), the “maximum tolerated QD dose” value is listed as 200 mg/kg. Also, the “maximum tolerated BID dose” value in data set [4] (twice daily (BID)) is reported as 100 mg/kg. For the same molecule, the “level of phosphorylated RSK (pRSK)” value in data set [5] is reported as “decrease”.
Consider `c1ccc([C@@H]2CN=C(c3ncc(-c4c[nH]c5ncc(N6CCOCC6)cc45)cn3)O2)cc1` [Compound 29, (R)-4-(3-(2-(5-phenyl-4,5-dihydrooxazol-2-yl)pyrimidin-5-yl)-1H-pyrrolo[2,3-b]pyridin-5-yl)morpholine], for which the dissociation constant (Kd) at ERK1 and on ERK2 was 11 to 100 nM throughout. The IC50 in data set [1] and in data set [2] was > 500 nM throughout. Also, the half-life at 1 µM in data set [3] is > 25 min.
Regarding `C[C@H](Cc1ccccc1)NC(=O)c1ncc(-c2c[nH]c3ncc(N4CCOCC4)cc23)cn1` [Compound 31, (R)-5-(5-morpholino-1H-pyrrolo[2,3-b]pyridin-3-yl)-N-(1-phenylpropan-2-yl)pyrimidine-2-carboxamide], the dissociation constant Kd on ERK1 and at ERK2 was ≤ 10 nM in each case. For the same molecule, the IC50 in data set [1] and in data set [2] was > 500 nM in each case. Moreover, in data set [3], the half-life at 1 µM is < 25 min.
